Data taken from US20180148418A1, “AMIDO-SUBSTITUTED CYCLOHEXANE DERIVATIVES” (Bayer Pharma Aktiengesellschaft, priority 2015, published 2018).

Experiments:
TNKS2 = target: T1, TNKS2 (Homo sapiens, UniProt Q9H2K2); assay: TNKS2 Assay B (auto-parsylation, [3H]-NAD+ SPA); format: biochemical; details: 6 nM TNKS2, auto-parsylation, over night at room temperature
T1 construct: purchased BPS Bioscience, San Diego, USA 80572 (TNKS2 Histone Ribosylation Assay Kit)
T1 sequence (Q9H2K2 1-1166): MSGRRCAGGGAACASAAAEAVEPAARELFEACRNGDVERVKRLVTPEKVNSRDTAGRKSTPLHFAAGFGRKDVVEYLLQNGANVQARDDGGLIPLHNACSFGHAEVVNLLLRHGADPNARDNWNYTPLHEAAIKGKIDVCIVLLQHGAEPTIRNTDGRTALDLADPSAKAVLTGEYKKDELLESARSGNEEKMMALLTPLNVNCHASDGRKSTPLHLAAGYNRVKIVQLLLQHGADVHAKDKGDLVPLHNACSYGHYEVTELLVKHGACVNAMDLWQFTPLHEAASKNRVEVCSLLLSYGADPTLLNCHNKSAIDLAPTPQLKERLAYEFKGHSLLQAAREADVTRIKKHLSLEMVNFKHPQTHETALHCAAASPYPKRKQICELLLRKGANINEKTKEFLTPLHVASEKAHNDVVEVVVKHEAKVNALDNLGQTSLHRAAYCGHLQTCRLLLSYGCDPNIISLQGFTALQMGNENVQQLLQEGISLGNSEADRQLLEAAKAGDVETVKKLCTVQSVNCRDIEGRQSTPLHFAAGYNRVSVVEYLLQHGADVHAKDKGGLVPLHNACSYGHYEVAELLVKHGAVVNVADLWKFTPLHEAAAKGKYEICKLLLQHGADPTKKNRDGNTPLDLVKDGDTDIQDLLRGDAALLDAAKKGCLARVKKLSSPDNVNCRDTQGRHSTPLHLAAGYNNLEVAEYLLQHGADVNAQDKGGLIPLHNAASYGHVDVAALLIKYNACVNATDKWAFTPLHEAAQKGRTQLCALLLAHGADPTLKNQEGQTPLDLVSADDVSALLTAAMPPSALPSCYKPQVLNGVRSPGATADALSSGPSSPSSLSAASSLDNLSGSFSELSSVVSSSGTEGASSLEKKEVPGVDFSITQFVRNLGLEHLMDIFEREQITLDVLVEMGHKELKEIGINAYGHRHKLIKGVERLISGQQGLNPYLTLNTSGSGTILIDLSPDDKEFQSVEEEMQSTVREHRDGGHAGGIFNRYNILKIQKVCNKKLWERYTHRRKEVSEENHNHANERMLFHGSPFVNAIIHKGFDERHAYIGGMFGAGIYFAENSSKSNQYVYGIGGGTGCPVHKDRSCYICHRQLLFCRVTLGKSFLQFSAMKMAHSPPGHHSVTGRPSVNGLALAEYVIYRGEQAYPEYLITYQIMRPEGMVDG

[1] = system: HEK293 cells cotransfected with the FOP control vector; assay: HEK293 FOP assay (control reporter with non-functional TCF elements); format: cell-based; details: Homo sapiens, 16 hours
How it was run: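 Compound series from 50 μM down to 15 nM, prediluted in DMSO then 50-fold into CAFTY buffer (pH 7.4, 2 mM Ca2+, 0.01% BSA), tested alongside TOP cells on a Geneticin-selected HEK293 FOP line whose TCF elements are replaced by a random sequence; recombinant human Wnt-3a applied at 2500-5 ng/ml.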

[2] = system: wildtype Wnt signaling cascade; assay: HEK293 TOP assay (Super TopFlash luciferase reporter, Wnt-3a stimulated); format: cell-based; details: Homo sapiens, HEK293, 16 h, HEK293 TOP reporter cells, Wnt3a at EC50, 16 hours
How it was run: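 Compound series (50 μM down to 15 nM, 3.16-fold) diluted from DMSO 50-fold into CAFTY buffer, pH 7.4, 2 mM Ca^2+, 0.01% BSA, applied to Wnt-3a-stimulated HEK293 TopFlash and FOP reporter lines in parallel. Cells seeded 10000/well 24 h before; luciferase signal measured.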

IC50 (TNKS2)	IC50 [2]	SMILES	IC50 [1]
150 nM	88 nM	Cc1cc(C)n2nc(C)c(C(=O)N[C@H]3CC[C@@]4(CCN(c5ccc(F)cc5Cl)C4=O)CC3)c2n1 [Example 227, N-[(trans)-2-(2-chloro-4-fluorophenyl)-1-oxo-2-azaspiro[4.5]dec-8-yl]-2,5,7-trimethylpyrazolo[1,5-a]pyrimidine-3-carboxamide]	≥ 50000 nM
45 nM	100 nM	Cc1cc(N2CCC[C@]3(CC[C@@H](NC(=O)c4[nH]cnc4C(N)=O)CC3)C2=O)c(Cl)cc1F [Example 309, N^5-[(trans)-2-(2-chloro-4-fluoro-5-methylphenyl)-1-oxo-2-azaspiro[5.5]undec-9-yl]-1H-imidazole-4,5-dicarboxamide]	≥ 50000 nM
2.8 nM	0.06 nM	O=C(N[C@H]1CC[C@@]2(CCN(c3ccc(F)cc3Cl)C2=O)CC1)c1[nH]cnc1C(=O)N1CC(C(F)F)C1 [Example 190, N-[(trans)-2-(2-chloro-4-fluorophenyl)-1-oxo-2-azaspiro[4.5]dec-8-yl]-4-{[3-(difluoromethyl)azetidin-1-yl]carbonyl}-1H-imidazole-5-carboxamide]	12000 nM
> 10000 nM	1100 nM	COCc1cc(C)n2ncc(C(=O)N[C@H]3CC[C@]4(CCN(c5ccc(F)cc5Cl)C4=O)CC3)c2n1 [Example 337, N-[(cis)-2-(2-chloro-4-fluorophenyl)-1-oxo-2-azaspiro[4.5]dec-8-yl]-5-(methoxymethyl)-7-methylpyrazolo[1,5-a]pyrimidine-3-carboxamide]	≥ 50000 nM
8.7 nM	1.4 nM	CNC(=O)c1nc[nH]c1C(=O)N[C@H]1CC[C@@]2(CCCN(c3cc(F)c(F)cc3Cl)C2=O)CC1 [Example 317, N^5-[(trans)-2-(2-chloro-4,5-difluorophenyl)-1-oxo-2-azaspiro[5.5]undec-9-yl]-N^4-methyl-1H-imidazole-4,5-dicarboxamide]	≥ 500 nM
5 nM	0.6 nM	O=C(N[C@H]1CC[C@@]2(CCN(c3ccc(F)cc3Cl)C2=O)CC1)c1[nH]cnc1C(=O)N1CC(OC(F)F)C1 [Example 193, N-[(trans)-2-(2-chloro-4-fluorophenyl)-1-oxo-2-azaspiro[4.5]dec-8-yl]-4-{[3-(difluoromethoxy)azetidin-1-yl]carbonyl}-1H-imidazole-5-carboxamide]	16000 nM
210 nM	590 nM	O=C(N[C@H]1CC[C@@]2(CCN(c3ccc(F)cc3Cl)C2=O)CC1)c1cnn2ccc(O)nc12 [Example 234, N-[(trans)-2-(2-chloro-4-fluorophenyl)-1-oxo-2-azaspiro[4.5]dec-8-yl]-5-hydroxypyrazolo[1,5-a]pyrimidine-3-carboxamide]	≥ 50000 nM
8.3 nM	1.3 nM	Cc1cc(N2CC[C@]3(CC[C@@H](NC(=O)c4[nH]cnc4C(=O)N4CC(OC(F)F)C4)CC3)C2=O)c(Cl)cc1F [Example 296, N-[(trans)-2-(2-chloro-4-fluoro-5-methylphenyl)-1-oxo-2-azaspiro[4.5]dec-8-yl]-4-{[3-(difluoromethoxy)azetidin-1-yl]carbonyl}-1H-imidazole-5-carboxamide]	35000 nM
1300 nM	840 nM	NC(=O)c1nc[nH]c1C(=O)N[C@H]1CC[C@]2(CCN(c3ccc(F)cc3Cl)C2=O)CC1 [Example 342, N^5-[(cis)-2-(2-chloro-4-fluorophenyl)-1-oxo-2-azaspiro[4.5]dec-8-yl]-1H-imidazole-4,5-dicarboxamide]	35000 nM
5 nM	1.6 nM	O=C(N[C@H]1CC[C@@]2(CCCN(c3cc(F)c(F)cc3Cl)C2=O)CC1)c1[nH]cnc1C(=O)N1CC(F)C1 [Example 316, N-[(trans)-2-(2-chloro-4,5-difluorophenyl)-1-oxo-2-azaspiro[5.5]undec-9-yl]-4-[(3-fluoroazetidin-1-yl)carbonyl]-1H-imidazole-5-carboxamide]	≥ 500 nM
> 10000 nM	1900 nM	O=C(NC1CC1)c1nc[nH]c1C(=O)N[C@H]1CC[C@]2(CCN(c3ccc(F)cc3Cl)C2=O)CC1 [Example 338, N^5-[(cis)-2-(2-chloro-4-fluorophenyl)-1-oxo-2-azaspiro[4.5]dec-8-yl]-N^4-cyclopropyl-1H-imidazole-4,5-dicarboxamide]	18000 nM
> 10000 nM	650 nM	Cc1ccn2ncc(C(=O)N[C@H]3CC[C@]4(CCN(c5ccc(F)cc5Cl)C4=O)CC3)c2n1 [Example 335, N-[(cis)-2-(2-chloro-4-fluorophenyl)-1-oxo-2-azaspiro[4.5]dec-8-yl]-5-methylpyrazolo[1,5-a]pyrimidine-3-carboxamide]	≥ 50000 nM

More lines, now with the values behind:

SMILES	IC50 (TNKS2)	IC50 [2]	IC50 [1]
COCc1cc(C)n2ncc(C(=O)N[C@H]3CC[C@@]4(CCN(c5c(F)cc(F)cc5Cl)C4=O)CC3)c2n1 [Example 242, N-[(trans)-2-(2-chloro-4,6-difluorophenyl)-1-oxo-2-azaspiro[4.5]dec-8-yl]-5-(methoxymethyl)-7-methylpyrazolo[1,5-a]pyrimidine-3-carboxamide]	21 nM	7.1 nM	≥ 50000 nM
Cc1cc(NC(=O)[C@H]2CC[C@H](NC(=O)c3cnn4cccnc34)CC2)c(Cl)cn1 [Example 153, N-{trans-4-[(5-chloro-2-methylpyridin-4-yl)carbamoyl]cyclohexyl}pyrazolo[1,5-a]pyrimidine-3-carboxamide]	170 nM	530 nM	≥ 50000 nM
O=C(N[C@H]1CC[C@H](C(=O)Nc2ccc(F)cc2Cl)CC1)c1c(Cl)nc2ccccn12 [Example 255, 2-chloro-N-{trans-4-[(2-chloro-4-fluorophenyl)carbamoyl]cyclohexyl}imidazo[1,2-a]pyridine-3-carboxamide]	> 10000 nM	≥ 50000 nM	≥ 50000 nM
O=C(N[C@H]1CC[C@@]2(CCN(c3ccccc3)C2=O)CC1)c1cnn2cccnc12 [Example 238, N-[(trans)-1-oxo-2-phenyl-2-azaspiro[4.5]dec-8-yl]pyrazolo[1,5-a]pyrimidine-3-carboxamide]	400 nM	43 nM	≥ 500 nM
O=C(N[C@H]1CC[C@@]2(CCN(c3cc(F)cc(F)c3)C2=O)CC1)c1cnn2cccnc12 [Example 245, N-[(trans)-2-(3,5-difluorophenyl)-1-oxo-2-azaspiro[4.5]dec-8-yl]pyrazolo[1,5-a]pyrimidine-3-carboxamide]	720 nM	100 nM	≥ 50000 nM
COCc1cc(C)nc2c(C(=O)N[C@H]3CC[C@@]4(CCN(c5c(F)cc(F)cc5Cl)C4=O)CC3)cnn12 [Example 241, N-[(trans)-2-(2-chloro-4,6-difluorophenyl)-1-oxo-2-azaspiro[4.5]dec-8-yl]-7-(methoxymethyl)-5-methylpyrazolo[1,5-a]pyrimidine-3-carboxamide]	19 nM	0.99 nM	8100 nM
O=C(N[C@H]1CC[C@@]2(CCN(c3cccc(Cl)c3)C2=O)CC1)c1c[nH]c2cccnc12 [Example 275, N-[(trans)-2-(3-chlorophenyl)-1-oxo-2-azaspiro[4.5]dec-8-yl]-1H-pyrrolo[3,2-b]pyridine-3-carboxamide]	300 nM	600 nM	11000 nM
N#Cc1cc(F)cc(Cl)c1NC(=O)[C@H]1CC[C@H](NC(=O)c2cnn3cccnc23)CC1 [Example 152, N-{trans-4-[(2-chloro-6-cyano-4-fluorophenyl)carbamoyl]cyclohexyl}pyrazolo[1,5-a]pyrimidine-3-carboxamide]	140 nM	91 nM	≥ 50000 nM
